Key:
[1] = xn = mol fraction of the nth substance listed; conditions: 100.8 kPa, Liquid
[2] = refractive index (Na D-line) (dimensionless); xn = mol fraction of the nth substance listed; conditions: 100.8 kPa, Liquid, Standard Abbe refractometry

CC1CCCCC1 [methylcyclohexane] + CCO
Conditions | mass density, 288.15 K [kg/m3] | mass density, 298.15 K [kg/m3] | mass density, 308.15 K [kg/m3] | refractive index, 288.15 K | refractive index, 298.15 K | refractive index, 308.15 K | viscosity, 288.15 K [mPa·s] | viscosity, 298.15 K [mPa·s] | viscosity, 308.15 K [mPa·s]
[1], x2 = 0 | 773.4 | 765 | 756.3 | – | – | – | 0.784 | 0.685 | 0.6
[1], x2 = 0.05 | 773.4 | 764.6 | 755.8 | – | – | – | 0.771 | 0.674 | 0.589
[1], x2 = 0.1 | 773.4 | 764.7 | 755.7 | – | – | – | 0.769 | 0.67 | 0.588
[1], x2 = 0.15 | 773.7 | 764.8 | 755.8 | – | – | – | 0.77 | 0.667 | 0.585
[1], x2 = 0.2 | 774 | 765.1 | 756.1 | – | – | – | 0.779 | 0.673 | 0.588
[1], x2 = 0.25 | 774.3 | 765.4 | 756.4 | – | – | – | 0.793 | 0.681 | 0.593
[1], x2 = 0.3 | 774.7 | 765.8 | 756.8 | – | – | – | 0.811 | 0.694 | 0.602
[1], x2 = 0.35 | 775.1 | 766.2 | 757.2 | – | – | – | 0.831 | 0.707 | 0.612
[1], x2 = 0.4 | 775.7 | 766.8 | 757.8 | – | – | – | 0.853 | 0.722 | 0.623
[1], x2 = 0.45 | 776.3 | 767.4 | 758.4 | – | – | – | 0.877 | 0.739 | 0.635
[1], x2 = 0.5 | 777 | 768.1 | 759.1 | – | – | – | 0.902 | 0.757 | 0.65
[1], x2 = 0.55 | 777.8 | 768.9 | 759.9 | – | – | – | 0.928 | 0.778 | 0.666
[1], x2 = 0.6 | 778.7 | 769.8 | 760.8 | – | – | – | 0.955 | 0.799 | 0.683
[1], x2 = 0.65 | 779.6 | 770.8 | 761.8 | – | – | – | 0.983 | 0.82 | 0.7
[1], x2 = 0.7 | 780.8 | 772 | 763.1 | – | – | – | 1.012 | 0.843 | 0.72
[1], x2 = 0.75 | 782.1 | 773.4 | 764.5 | – | – | – | 1.043 | 0.867 | 0.74
[1], x2 = 0.8 | 783.6 | 774.9 | 766 | – | – | – | 1.077 | 0.894 | 0.762
[1], x2 = 0.85 | 785.4 | 776.7 | 767.9 | – | – | – | 1.114 | 0.926 | 0.79
[1], x2 = 0.9 | 787.7 | 779 | 770.2 | – | – | – | 1.164 | 0.971 | 0.828
[1], x2 = 0.95 | 790.4 | 781.8 | 773 | – | – | – | 1.225 | 1.021 | 0.867
[2], x2 = 0 | – | – | – | 1.42578 | 1.42053 | 1.41537 | – | – | –
[2], x2 = 0.05 | – | – | – | 1.42405 | 1.41871 | 1.41358 | – | – | –
[2], x2 = 0.1 | – | – | – | 1.42223 | 1.4169 | 1.41176 | – | – | –
[2], x2 = 0.15 | – | – | – | 1.42037 | 1.41505 | 1.40993 | – | – | –
[2], x2 = 0.2 | – | – | – | 1.41843 | 1.41313 | 1.40802 | – | – | –
[2], x2 = 0.25 | – | – | – | 1.41639 | 1.41112 | 1.40603 | – | – | –
[2], x2 = 0.3 | – | – | – | 1.41426 | 1.40902 | 1.40396 | – | – | –
[2], x2 = 0.35 | – | – | – | 1.41199 | 1.40679 | 1.40175 | – | – | –
[2], x2 = 0.4 | – | – | – | 1.4096 | 1.40442 | 1.39942 | – | – | –
[2], x2 = 0.45 | – | – | – | 1.40706 | 1.40192 | 1.39695 | – | – | –
[2], x2 = 0.5 | – | – | – | 1.40437 | 1.39927 | 1.39433 | – | – | –
[2], x2 = 0.55 | – | – | – | 1.4015 | 1.39644 | 1.39153 | – | – | –
[2], x2 = 0.6 | – | – | – | 1.39844 | 1.39343 | 1.38856 | – | – | –
[2], x2 = 0.65 | – | – | – | 1.39516 | 1.3902 | 1.38538 | – | – | –
[2], x2 = 0.7 | – | – | – | 1.39166 | 1.38674 | 1.38197 | – | – | –
[2], x2 = 0.75 | – | – | – | 1.38785 | 1.38298 | 1.37827 | – | – | –
[2], x2 = 0.8 | – | – | – | 1.38377 | 1.37896 | 1.37432 | – | – | –
[2], x2 = 0.85 | – | – | – | 1.37933 | 1.37459 | 1.37001 | – | – | –
[2], x2 = 0.9 | – | – | – | 1.37449 | 1.36985 | 1.36536 | – | – | –
[2], x2 = 0.95 | – | – | – | 1.36921 | 1.36474 | 1.36042 | – | – | –
